Test results: the NIST ThermoML archive (doi:10.1021/je500513b)

Assay: mn = molality of the nth substance listed, in mol/kg
Conditions: for surface tension liquid-gas: Pendant drop shape; for electrical conductivity: 100 kPa, Liquid, Mettler Toledo inLab 710

CCCCCCCCCCCCCC[N+](C)(C)CCCCCC[N+](C)(C)CCCCCCCCCCCCCC.[Br-].[Br-] + O
Conditions | electrical conductivity, 298.15 K [S/m] | electrical conductivity, 303.15 K [S/m] | electrical conductivity, 308.15 K [S/m] | electrical conductivity, 313.15 K [S/m] | electrical conductivity, 318.15 K [S/m] | electrical conductivity, 323.15 K [S/m] | surface tension liquid-gas, 298.15 K [mN/m]
m1 = 1e-05 | – | – | – | – | – | – | 61.8
m1 = 2e-05 | – | – | – | – | – | – | 56.01
m1 = 3e-05 | – | – | – | – | – | – | 52.48
m1 = 4e-05 | – | – | – | – | – | – | 50.87
m1 = 5e-05 | – | – | – | – | – | – | 49.03
m1 = 6e-05 | – | – | – | – | – | – | 47.1
m1 = 7e-05 | – | – | – | – | – | – | 45.98
m1 = 8e-05 | – | – | – | – | – | – | 43.05
m1 = 0.0001 | – | – | – | – | – | – | 42.1
m1 = 0.000111 | 0.00247 | 0.00278 | 0.00326 | 0.00342 | 0.00369 | 0.00384 | –
m1 = 0.000115 | 0.00256 | – | – | – | – | – | –
m1 = 0.000118 | – | 0.00293 | 0.00339 | 0.00353 | 0.00387 | 0.004 | –
m1 = 0.00012 | 0.00265 | – | – | – | – | – | 41.5
m1 = 0.000125 | 0.00273 | 0.00311 | 0.00353 | 0.00364 | 0.00407 | 0.00426 | –
m1 = 0.00013 | 0.0028 | – | – | – | – | – | –
m1 = 0.000133 | – | 0.00327 | 0.00369 | 0.00386 | 0.00431 | 0.00452 | –
m1 = 0.000136 | 0.00289 | – | – | – | – | – | –
m1 = 0.00014 | – | – | – | – | – | – | 40.55
m1 = 0.000143 | 0.003 | 0.00347 | 0.00386 | 0.00411 | 0.00454 | 0.00482 | –
m1 = 0.00015 | 0.00312 | 0.00361 | 0.004 | 0.00429 | 0.00478 | 0.00504 | –
m1 = 0.000158 | 0.00326 | 0.00375 | 0.00418 | 0.00449 | 0.00503 | 0.00526 | –
m1 = 0.000167 | 0.00338 | 0.00391 | 0.00438 | 0.00467 | 0.00529 | 0.00554 | –
m1 = 0.00017 | – | – | – | – | – | – | 39.84
m1 = 0.000176 | 0.00352 | 0.00407 | 0.00458 | 0.00494 | 0.00559 | 0.00586 | –
m1 = 0.000188 | 0.00365 | 0.00424 | 0.00478 | 0.00523 | 0.00588 | 0.00618 | –
m1 = 0.000197 | – | 0.00435 | 0.00493 | 0.00541 | 0.00613 | 0.00647 | –
m1 = 0.0002 | 0.0038 | – | – | – | – | – | 39.13
m1 = 0.000207 | – | 0.0045 | 0.00512 | 0.00562 | 0.00638 | 0.00676 | –
m1 = 0.000214 | 0.00396 | – | – | – | – | – | –
m1 = 0.000218 | – | 0.00464 | 0.00529 | 0.00582 | 0.00665 | 0.00702 | –
m1 = 0.000231 | 0.00413 | 0.00479 | 0.00548 | 0.00602 | 0.00694 | 0.00736 | –
m1 = 0.00024 | 0.00423 | 0.00491 | 0.0056 | 0.00617 | 0.00714 | 0.0076 | –
m1 = 0.00025 | 0.00434 | 0.00502 | 0.00573 | 0.00633 | 0.00734 | 0.00784 | –
m1 = 0.000261 | 0.00445 | 0.00513 | 0.00587 | 0.00647 | 0.00755 | 0.00808 | –
m1 = 0.000273 | 0.00456 | 0.00524 | 0.00604 | 0.00663 | 0.00777 | 0.00832 | –
m1 = 0.000286 | 0.00469 | 0.00539 | 0.00621 | 0.00681 | 0.008 | 0.00856 | –
m1 = 0.0003 | 0.00481 | 0.00556 | 0.00639 | 0.00704 | 0.00822 | 0.0088 | 38.57
m1 = 0.0004 | – | – | – | – | – | – | 38.4

CCCCCCCCCCCCCC[N+](C)(C)CCCC[N+](C)(C)CCCCCCCCCCCCCC.[Br-].[Br-] + O
Conditions | electrical conductivity, 298.15 K [S/m] | electrical conductivity, 303.15 K [S/m] | electrical conductivity, 308.15 K [S/m] | electrical conductivity, 313.15 K [S/m] | electrical conductivity, 318.15 K [S/m] | electrical conductivity, 323.15 K [S/m] | surface tension liquid-gas, 298.15 K [mN/m]
m1 = 1e-05 | – | – | – | – | – | – | 58.66
m1 = 2e-05 | – | – | – | – | – | – | 56.16
m1 = 3e-05 | – | – | – | – | – | – | 51.87
m1 = 4e-05 | – | – | – | – | – | – | 50.69
m1 = 5e-05 | – | – | – | – | – | – | 49.28
m1 = 6e-05 | – | – | – | – | – | – | 47.86
m1 = 7e-05 | – | – | – | – | – | – | 45.48
m1 = 8e-05 | – | – | – | – | – | – | 44.02
m1 = 9e-05 | – | – | – | – | – | – | 43.09
m1 = 0.0001 | – | – | – | – | – | – | 42.13
m1 = 0.000111 | 0.00256 | – | 0.00315 | 0.00337 | – | 0.00418 | –
m1 = 0.000118 | 0.0027 | 0.00296 | 0.00332 | 0.00354 | 0.00387 | 0.00442 | –
m1 = 0.00012 | – | – | – | – | – | – | 39.63
m1 = 0.000125 | 0.00286 | 0.00313 | 0.00351 | 0.00375 | 0.00411 | 0.00465 | –
m1 = 0.000133 | 0.003 | 0.00333 | 0.00371 | 0.00401 | 0.00436 | 0.0049 | –
m1 = 0.00014 | – | – | – | – | – | – | 39.01
m1 = 0.000143 | 0.00321 | 0.00354 | 0.00392 | 0.00426 | 0.00463 | 0.00514 | –
m1 = 0.00015 | 0.00333 | 0.00365 | 0.00407 | 0.00448 | 0.00486 | 0.00538 | –
m1 = 0.000158 | 0.00344 | 0.00377 | 0.00423 | 0.00468 | 0.005 | 0.00563 | –
m1 = 0.000167 | 0.00354 | 0.00391 | 0.00442 | 0.00491 | 0.00524 | 0.00588 | –
m1 = 0.00017 | – | – | – | – | – | – | 38.87
m1 = 0.000176 | 0.00364 | 0.00405 | 0.00458 | 0.00514 | 0.00548 | 0.0062 | –
m1 = 0.000188 | 0.00373 | 0.00418 | 0.00475 | 0.0054 | 0.00576 | 0.00653 | –
m1 = 0.000197 | 0.00382 | 0.00427 | 0.00487 | 0.00557 | 0.00593 | 0.00682 | –
m1 = 0.0002 | – | – | – | – | – | – | 38.31
m1 = 0.000207 | 0.0039 | 0.00436 | 0.005 | 0.00574 | 0.00612 | 0.00712 | –
m1 = 0.000218 | 0.00399 | 0.00447 | 0.00514 | 0.00588 | 0.00632 | 0.00745 | –
m1 = 0.000231 | 0.00409 | 0.00457 | 0.00529 | 0.00606 | 0.00655 | 0.00772 | –
m1 = 0.00024 | 0.00416 | 0.00465 | 0.00539 | 0.00617 | 0.00667 | 0.00786 | –
m1 = 0.00025 | 0.00422 | 0.00473 | 0.00549 | 0.00628 | 0.0068 | 0.00805 | –
m1 = 0.000261 | 0.0043 | 0.00482 | 0.0056 | 0.00641 | 0.00694 | 0.00823 | –
m1 = 0.000273 | 0.00438 | 0.00489 | 0.00572 | 0.00652 | 0.00708 | 0.00839 | –
m1 = 0.000286 | 0.00448 | 0.00499 | 0.00584 | 0.00667 | 0.00724 | 0.00858 | –
m1 = 0.0003 | 0.00459 | 0.00512 | 0.00597 | 0.00681 | 0.0074 | 0.00877 | 37.21
